This is an account of results in patent US20230019491A1, “PYRIMIDINE TBK/IKKe INHIBITOR COMPOUNDS AND USES THEREOF” (Merck Patent GmbH, priority 2017, published 2023).

One assay has as its target T1, TBK1 (Homo sapiens, UniProt Q9UHD2).
T1 sequence (Q9UHD2 1-729): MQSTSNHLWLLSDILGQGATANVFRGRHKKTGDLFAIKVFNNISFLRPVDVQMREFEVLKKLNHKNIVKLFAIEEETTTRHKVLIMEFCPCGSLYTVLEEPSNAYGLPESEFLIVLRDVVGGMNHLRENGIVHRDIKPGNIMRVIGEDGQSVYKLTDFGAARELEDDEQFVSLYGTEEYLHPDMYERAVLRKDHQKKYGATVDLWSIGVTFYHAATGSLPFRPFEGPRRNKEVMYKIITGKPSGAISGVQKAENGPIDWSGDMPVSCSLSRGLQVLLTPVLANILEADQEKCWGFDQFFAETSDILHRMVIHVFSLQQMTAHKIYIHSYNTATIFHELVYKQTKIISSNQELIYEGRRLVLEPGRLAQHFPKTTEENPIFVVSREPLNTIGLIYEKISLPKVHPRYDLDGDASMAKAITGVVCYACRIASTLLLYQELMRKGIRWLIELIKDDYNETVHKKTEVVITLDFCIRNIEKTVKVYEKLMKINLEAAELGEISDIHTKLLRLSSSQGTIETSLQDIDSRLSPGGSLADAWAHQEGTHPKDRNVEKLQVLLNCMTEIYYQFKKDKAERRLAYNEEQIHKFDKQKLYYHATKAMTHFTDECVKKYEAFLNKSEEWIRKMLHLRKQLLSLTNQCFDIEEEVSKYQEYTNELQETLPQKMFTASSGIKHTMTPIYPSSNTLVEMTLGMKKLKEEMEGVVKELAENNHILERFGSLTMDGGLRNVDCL
The experiment in a line: TBK biochemical assay. As to conditions: 10 point 1:4 dose response, 30 uM top concentration, 90 min at 25° C., LabChip EZ Reader II; read-out: TBK1_IC50. The procedure, abridged:
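Read-out was a Caliper LabChip mobility-shift assay, run after a 90-min, 25 °C reaction of TBK1 with substrate and compounds, quenched with stop buffer. Control wells received staurosporine at 10 uM final.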

The target in another assay is T2, IKKε (Homo sapiens, UniProt Q14164).
T2 sequence (Q14164 1-716): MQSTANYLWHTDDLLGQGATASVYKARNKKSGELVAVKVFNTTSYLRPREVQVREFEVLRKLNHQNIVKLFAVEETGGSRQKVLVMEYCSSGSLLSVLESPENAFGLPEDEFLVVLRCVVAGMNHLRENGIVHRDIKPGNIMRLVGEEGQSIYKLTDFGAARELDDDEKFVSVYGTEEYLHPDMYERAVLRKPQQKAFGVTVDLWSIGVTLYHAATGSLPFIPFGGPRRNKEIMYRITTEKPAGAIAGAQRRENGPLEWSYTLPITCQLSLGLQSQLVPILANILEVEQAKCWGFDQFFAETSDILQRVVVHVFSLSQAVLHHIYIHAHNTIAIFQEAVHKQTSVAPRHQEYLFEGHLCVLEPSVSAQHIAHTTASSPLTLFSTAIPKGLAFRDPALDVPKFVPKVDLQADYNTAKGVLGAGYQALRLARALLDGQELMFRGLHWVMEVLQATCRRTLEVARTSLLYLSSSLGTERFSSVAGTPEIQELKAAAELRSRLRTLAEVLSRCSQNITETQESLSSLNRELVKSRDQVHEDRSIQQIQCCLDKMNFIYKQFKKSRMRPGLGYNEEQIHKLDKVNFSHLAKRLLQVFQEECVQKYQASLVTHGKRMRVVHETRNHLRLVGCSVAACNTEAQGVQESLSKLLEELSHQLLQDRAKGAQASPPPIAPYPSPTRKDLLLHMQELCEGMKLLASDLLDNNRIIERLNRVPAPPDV
Description: IKKε biochemical assay. As to conditions: 10 point 1:4 dose response, 30 uM top concentration, 90 min at 25° C., LabChip EZ Reader II; read-out: IKKε_IC50. In short, it runs like this: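 Mobility-shift LabChip read-out followed a 90 min, 25° C. reaction of IKKε with substrate and test compound, with DMSO held at 1% final. Reactions were ended with stop buffer. Wells with 10 uM final staurosporine defined complete inhibition, and DMSO-only wells the uninhibited level.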

As to `CN1CCN(c2ccc(Nc3nccc(-c4ccc(OC5CCOCC5)c(C#N)c4)n3)cc2)CC1` [Example 163, 5-{2-[4-(4-Methyl-piperazin-1-yl)-phenylamino]-pyrimidin-4-yl}-2-(tetrahydro-pyran-4-yloxy)-benzonitrile], the IC50 at TBK1 and at IKKε was under 0.1 µM throughout.
Take `CN1CCN(c2ccc(Nc3nccc(-c4ccc(OC5CCOCC5)c(C#N)c4)n3)nc2)CC1` [Example 164, 5-(2-[[5-(4-methylpiperazin-1-yl)pyridin-2-yl]amino]pyrimidin-4-yl)-2-(oxan-4-yloxy)benzonitrile]: the IC50 on TBK1 and on IKKε was under 0.1 µM each time.
For the compound `N#Cc1cc(-c2ccnc(Nc3ccc(N4CCN(C5COC5)CC4)cn3)n2)ccc1OC1CCOCC1` [Example 165, 5-{2-[5-(4-Oxetan-3-yl-piperazin-1-yl)-pyridin-2-ylamino]-pyrimidin-4-yl}-2-(tetrahydro-pyran-4-yloxy)-benzonitrile], the IC50 on TBK1 and at IKKε was under 0.1 µM in each case.
For `COCCN1CCN(c2ccc(Nc3nccc(-c4ccc(OC5CCOCC5)c(C#N)c4)n3)nc2OC)CC1` [Example 166], the IC50 at TBK1 and on IKKε was under 0.1 µM each time.
In the case of `COc1nc(Nc2nccc(-c3ccc(OC4CCOCC4)c(C#N)c3)n2)ccc1N1CCN(CCO)CC1` [Example 167, 5-[2-([5-[4-(2-hydroxyethyl)piperazin-1-yl]-6-methoxypyridin-2-yl]amino)pyrimidin-4-yl]-2-(oxan-4-yloxy)benzonitrile], the IC50 on TBK1 and at IKKε was under 0.1 µM throughout.
For the compound `COc1nc(Nc2nccc(-c3ccc(OC4CCOCC4)c(C#N)c3)n2)ccc1N1CCN(C(C)=O)CC1` [Example 168, 5-(2-[[5-(4-acetylpiperazin-1-yl)-6-methoxypyridin-2-yl]amino]pyrimidin-4-yl)-2-(oxan-4-yloxy)benzonitrile], the IC50 on TBK1 and at IKKε was under 0.1 µM throughout.
As to `COc1nc(Nc2nccc(-c3ccc(OC4CCOCC4)c(C#N)c3)n2)ccc1N1CCN(C2COC2)CC1` [Example 169, 5-{2-[6-Methoxy-5-(4-oxetan-3-yl-piperazin-1-yl)-pyridin-2-ylamino]-pyrimidin-4-yl}-2-(tetrahydro-pyran-4-yloxy)-benzonitrile], the IC50 on TBK1 and on IKKε was under 0.1 µM in each case.
On to `COc1nc(Nc2nccc(-c3ccc(OC4CCOCC4F)c(C#N)c3)n2)ccc1N1CCN(C2COC2)CC1` (centres unmarked) [Example 170, 2-(3-Fluoro-tetrahydro-pyran-4-yloxy)-5-{2-[6-methoxy-5-(4-oxetan-3-yl-piperazin-1-yl)-pyridin-2-ylamino]-pyrimidin-4-yl}-benzonitrile], for which the IC50 at TBK1 and at IKKε was under 0.1 µM each time.
On to `N#Cc1cc(-c2ccnc(Nc3ccc(N4CCN(C5COC5)CC4)cc3)n2)ccc1OC1CNC1` [Example 171, 2-(azetidin-3-yloxy)-5-[2-([4-[4-(oxetan-3-yl)piperazin-1-yl]phenyl]amino)pyrimidin-4-yl]benzonitrile], for which the IC50 at TBK1 and at IKKε was under 0.1 µM each time.
For `C[C@H](O)C(=O)N1CC(Oc2ccc(-c3ccnc(Nc4ccc(N5CCN(C6COC6)CC5)cc4)n3)cc2C#N)C1` [Example 172, 2-([1-[(2S)-2-hydroxypropanoyl]azetidin-3-yl]oxy)-5-[2-([4-[4-(oxetan-3-yl)piperazin-1-yl]phenyl]amino)pyrimidin-4-yl]benzonitrile], the IC50 at TBK1 and at IKKε was 0.1 to 1 µM throughout.
For `C[C@@H](O)C(=O)N1CC(Oc2ccc(-c3ccnc(Nc4ccc(N5CCN(C6COC6)CC5)cc4)n3)cc2C#N)C1` [Example 173, 2-([1-[(2R)-2-hydroxypropanoyl]azetidin-3-yl]oxy)-5-[2-([4-[4-(oxetan-3-yl)piperazin-1-yl]phenyl]amino)pyrimidin-4-yl]benzonitrile], the IC50 on TBK1 and at IKKε was 0.1 to 1 µM throughout.
Regarding `COc1nc(Nc2nccc(-c3ccc(OC4CNC4)c(C#N)c3)n2)ccc1N1CCN(C2COC2)CC1` [Example 174, 2-(azetidin-3-yloxy)-5-[2-([6-methoxy-5-[4-(oxetan-3-yl)piperazin-1-yl]pyridin-2-yl]amino)pyrimidin-4-yl]benzonitrile], the IC50 on TBK1 and on IKKε was under 0.1 µM in each case.
In the case of `COc1nc(Nc2nccc(-c3ccc(OC4CN(C(=O)[C@H](C)O)C4)c(C#N)c3)n2)ccc1N1CCN(C2COC2)CC1` [Example 175, 2-([1-[(2S)-2-hydroxypropanoyl]azetidin-3-yl]oxy)-5-[2-([6-methoxy-5-[4-(oxetan-3-yl)piperazin-1-yl]pyridin-2-yl]amino)pyrimidin-4-yl]benzonitrile], the IC50 on TBK1 and on IKKε was 0.1 to 1 µM in each case.
With `COc1nc(Nc2nccc(-c3ccc(OC4CN(C(=O)[C@@H](C)O)C4)c(C#N)c3)n2)ccc1N1CCN(C2COC2)CC1` [Example 176, 2-([1-[(2R)-2-hydroxypropanoyl]azetidin-3-yl]oxy)-5-[2-([6-methoxy-5-[4-(oxetan-3-yl)piperazin-1-yl]pyridin-2-yl]amino)pyrimidin-4-yl]benzonitrile], the figures for the IC50 at TBK1 and on IKKε were 0.1 to 1 µM and 1 to 5 µM, respectively.
On the same counts, the results for `C[C@@H](O)C(=O)N1CCC(Oc2ccc(-c3ccnc(Nc4ccc(N5CCN(C6COC6)CC5)cc4)n3)cc2C#N)C1` (stereo partly drawn) [Example 179, 2-([1-[(2R)-2-hydroxypropanoyl]pyrrolidin-3-yl]oxy)-5-[2-([4-[4-(oxetan-3-yl)piperazin-1-yl]phenyl]amino)pyrimidin-4-yl]benzonitrile] are under 0.1 µM and under 0.1 µM.
As for `COc1nc(Nc2nccc(-c3ccc(OC4CCNC4)c(C#N)c3)n2)ccc1N1CCN(C2COC2)CC1` (centres unmarked) [Example 182, 5-[2-([6-methoxy-5-[4-(oxetan-3-yl)piperazin-1-yl]pyridin-2-yl]amino)pyrimidin-4-yl]-2-(pyrrolidin-3-yloxy)benzonitrile], the IC50 on TBK1 and at IKKε was under 0.1 µM throughout.
Consider `COc1nc(Nc2nccc(-c3ccc(OC4CCN(C(=O)[C@H](C)O)C4)c(C#N)c3)n2)ccc1N1CCN(C2COC2)CC1` (stereo partly drawn) [Example 183, 2-([1-[(2S)-2-hydroxypropanoyl]pyrrolidin-3-yl]oxy)-5-[2-([6-methoxy-5-[4-(oxetan-3-yl)piperazin-1-yl]pyridin-2-yl]amino)pyrimidin-4-yl]benzonitrile], for which the IC50 at TBK1 and on IKKε was under 0.1 µM each time.
On to `COc1nc(Nc2nccc(-c3ccc(OC4CCN(C(=O)[C@@H](C)O)C4)c(C#N)c3)n2)ccc1N1CCN(C2COC2)CC1` (stereo partly drawn) [Example 184, 2-([1-[(2R)-2-hydroxypropanoyl]pyrrolidin-3-yl]oxy)-5-[2-([6-methoxy-5-[4-(oxetan-3-yl)piperazin-1-yl]pyridin-2-yl]amino)pyrimidin-4-yl]benzonitrile], for which the IC50 on TBK1 and on IKKε was 0.1 to 1 µM each time.
As for `COc1nc(Nc2nccc(-c3ccc(OC4CCNCC4)c(C#N)c3)n2)ccc1N1CCN(C2COC2)CC1` [Example 185, 5-[2-({6-methoxy-5-[4-(oxetan-3-yl)piperazin-1-yl]pyridin-2-yl}amino)pyrimidin-4-yl]-2-(piperidin-4-yloxy)benzonitrile], the IC50 at TBK1 and on IKKε was under 0.1 µM each time.
